Results reported in ChEMBL document CHEMBL5108025, “New thiazole-based derivatives as EGFR/HER2 and DHFR inhibitors: Synthesis, molecular modeling simulations and anticancer activity” (Eur J Med Chem, 2022).

How the values were obtained:
HeLa = test: Antiproliferative activity against human HeLa cells after 72 hrs by MTT assay; format: functional, cell-based
PC-3 = test: Antiproliferative activity against human PC-3 cells after 72 hrs by MTT assay; format: functional, cell-based; conditions: PC-3, 72 h
MCF7 = test: cells; conditions: Homo sapiens, MCF7, 72 h
HCT-116 = test: cells; conditions: Homo sapiens, HCT-116, 72 h
Description: Antiproliferative activity against human HCT-116 cells after 72 hrs by MTT assay

HepG2 = test: cells; conditions: Homo sapiens, HepG2, 72 h
[1] = biological target: Receptor tyrosine-protein kinase erbB-2 (Homo sapiens, UniProt P04626); test: Inhibition of recombinant human HER2 incubated for 40 to 45 mins and measured after 15 mins by Kinase-Glo Max assay
Chain of Receptor tyrosine-protein kinase erbB-2 (P04626 whole entry): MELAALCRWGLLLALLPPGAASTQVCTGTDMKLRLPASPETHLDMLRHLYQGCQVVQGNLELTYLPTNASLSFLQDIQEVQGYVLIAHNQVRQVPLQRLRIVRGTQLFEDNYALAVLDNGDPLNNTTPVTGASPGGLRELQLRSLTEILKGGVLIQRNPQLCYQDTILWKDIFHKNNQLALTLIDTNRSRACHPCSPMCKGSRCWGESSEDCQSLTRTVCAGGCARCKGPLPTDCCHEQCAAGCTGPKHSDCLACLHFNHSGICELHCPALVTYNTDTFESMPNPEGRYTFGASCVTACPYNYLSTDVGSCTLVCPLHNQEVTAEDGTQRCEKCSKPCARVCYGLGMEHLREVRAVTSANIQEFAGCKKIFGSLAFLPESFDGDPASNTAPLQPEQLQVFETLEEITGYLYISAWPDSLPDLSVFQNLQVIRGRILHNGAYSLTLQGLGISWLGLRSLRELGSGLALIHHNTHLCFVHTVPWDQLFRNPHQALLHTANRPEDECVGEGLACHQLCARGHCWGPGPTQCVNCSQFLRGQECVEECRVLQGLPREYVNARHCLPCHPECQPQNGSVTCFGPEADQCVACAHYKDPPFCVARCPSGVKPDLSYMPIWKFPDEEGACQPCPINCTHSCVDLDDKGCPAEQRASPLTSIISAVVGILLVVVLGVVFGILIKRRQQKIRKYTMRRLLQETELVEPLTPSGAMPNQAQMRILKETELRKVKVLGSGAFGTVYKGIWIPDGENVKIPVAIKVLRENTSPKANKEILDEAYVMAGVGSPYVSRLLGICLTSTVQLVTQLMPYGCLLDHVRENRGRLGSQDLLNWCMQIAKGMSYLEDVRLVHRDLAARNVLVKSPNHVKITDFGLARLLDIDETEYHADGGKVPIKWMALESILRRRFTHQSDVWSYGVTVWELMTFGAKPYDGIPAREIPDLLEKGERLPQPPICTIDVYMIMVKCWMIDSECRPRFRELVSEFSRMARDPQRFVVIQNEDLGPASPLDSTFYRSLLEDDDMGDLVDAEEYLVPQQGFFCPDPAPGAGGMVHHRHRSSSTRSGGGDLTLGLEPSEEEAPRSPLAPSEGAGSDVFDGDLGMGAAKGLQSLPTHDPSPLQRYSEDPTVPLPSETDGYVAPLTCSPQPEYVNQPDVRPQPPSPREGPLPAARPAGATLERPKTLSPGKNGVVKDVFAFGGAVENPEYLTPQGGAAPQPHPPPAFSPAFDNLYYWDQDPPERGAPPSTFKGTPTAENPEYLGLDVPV

WI-38 = test: Antiproliferative activity against human WI-38 cells after 72 hrs by MTT assay; format: functional, cell-based; conditions: WI-38, 72 h
[2] = biological target: Epidermal growth factor receptor (Homo sapiens, UniProt P00533)
Chain of Epidermal growth factor receptor (P00533 whole entry): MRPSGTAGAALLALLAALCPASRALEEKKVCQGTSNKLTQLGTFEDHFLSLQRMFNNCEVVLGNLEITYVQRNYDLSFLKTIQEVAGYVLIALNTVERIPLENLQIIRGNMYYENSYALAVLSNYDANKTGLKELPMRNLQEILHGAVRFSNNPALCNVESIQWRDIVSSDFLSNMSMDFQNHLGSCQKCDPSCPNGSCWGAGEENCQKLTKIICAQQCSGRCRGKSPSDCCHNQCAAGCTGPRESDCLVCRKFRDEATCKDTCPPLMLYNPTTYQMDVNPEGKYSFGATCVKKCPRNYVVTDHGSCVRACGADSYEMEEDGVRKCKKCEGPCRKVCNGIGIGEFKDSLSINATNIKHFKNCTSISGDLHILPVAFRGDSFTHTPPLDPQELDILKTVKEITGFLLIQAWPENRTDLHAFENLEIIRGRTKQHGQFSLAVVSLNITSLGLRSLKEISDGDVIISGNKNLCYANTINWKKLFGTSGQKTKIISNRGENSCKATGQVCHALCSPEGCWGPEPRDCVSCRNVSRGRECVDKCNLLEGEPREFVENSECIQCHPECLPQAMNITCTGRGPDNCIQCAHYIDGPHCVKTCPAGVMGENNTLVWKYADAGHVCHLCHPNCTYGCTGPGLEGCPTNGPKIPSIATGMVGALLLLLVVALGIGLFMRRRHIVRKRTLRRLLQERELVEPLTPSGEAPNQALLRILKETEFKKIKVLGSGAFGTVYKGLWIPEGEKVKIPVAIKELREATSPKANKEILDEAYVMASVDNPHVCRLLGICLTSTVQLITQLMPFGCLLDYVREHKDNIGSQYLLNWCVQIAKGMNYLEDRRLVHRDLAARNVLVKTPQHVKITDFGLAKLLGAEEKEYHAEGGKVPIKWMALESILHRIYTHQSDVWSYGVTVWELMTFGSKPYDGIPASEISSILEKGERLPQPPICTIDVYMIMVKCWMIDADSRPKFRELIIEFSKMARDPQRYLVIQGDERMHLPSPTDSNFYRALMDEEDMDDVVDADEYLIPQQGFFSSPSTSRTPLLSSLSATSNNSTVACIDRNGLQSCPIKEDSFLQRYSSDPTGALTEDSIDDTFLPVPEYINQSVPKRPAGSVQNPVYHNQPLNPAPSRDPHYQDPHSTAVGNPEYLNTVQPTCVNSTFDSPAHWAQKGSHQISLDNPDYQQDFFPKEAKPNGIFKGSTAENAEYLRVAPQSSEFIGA
Description: Inhibition of recombinant human EGFR incubated for 40 to 45 mins and measured after 15 mins by Kinase-Glo Max assay

Dihydrofolate reductase = biological target: T1, Dihydrofolate reductase (Homo sapiens, UniProt P00374); test: Inhibition of recombinant human DHFR expressed in Escherichia coli incubated for 15 mins and measured by ELISA
T1 sequence (P00374 whole entry): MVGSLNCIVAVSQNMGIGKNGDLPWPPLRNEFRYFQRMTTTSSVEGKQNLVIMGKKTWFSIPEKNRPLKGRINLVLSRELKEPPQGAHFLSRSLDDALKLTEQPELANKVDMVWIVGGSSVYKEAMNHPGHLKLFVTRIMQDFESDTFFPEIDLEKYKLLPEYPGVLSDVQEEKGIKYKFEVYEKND

Compound | IC50 (HeLa) [µM] | IC50 (PC-3) [µM] | IC50 (MCF7) [µM] | IC50 (HCT-116) [µM] | IC50 (HepG2) [µM] | IC50 [1] [nM] | IC50 (WI-38) [µM] | IC50 [2] [nM] | IC50 (Dihydrofolate reductase) [nM]
CCC(=O)NNC(=O)c1csc2nc(CN3CCOCC3)c(-c3ccc(OC)cc3)n12 | 44.2 | 73.9 | 64.1 | 59.3 | 55.9 |  |  |  | 
COc1ccc(-c2c(CN3CCOCC3)nc3scc(C(=O)NNC(C)=O)n23)cc1 | 18.9 | 34.8 | 11.3 | 29.9 | 23.7 |  |  |  | 
CCOC(=O)c1csc2nc(CN3CCN(Cc4ccccc4)CC3)c(-c3ccc(C)cc3)n12 | 38.8 | > 100 | 29.1 | 47.8 | 88.2 |  |  |  | 
CC(=O)NNC(=O)c1csc2nc(CN3CCOCC3)c(-c3ccc(C)cc3)n12 | 35.3 | 61.3 | 50.8 | 54.6 | 43 |  |  |  | 
COc1ccc(NC(=S)Nc2nc(C(=O)NCc3ccccc3)cs2)cc1 | 22.9 | 39.3 | 24.6 | 18.2 | 28.1 |  |  |  | 
COc1ccc(NC(=S)Nc2nc(C(=O)NCCc3ccccc3)cs2)cc1 | 14.8 | 25.1 | 10.6 | 8.13 | 19.5 |  |  |  | 
CCCC(=O)NNC(=O)c1csc2nc(CN3CCOCC3)c(-c3ccc(OC)cc3)n12 | 53.7 | 88.5 | 72.4 | 68.7 | 81.2 |  |  |  | 
CCC(=O)NNC(=O)c1csc2nc(CN3CCOCC3)c(-c3ccc(Br)cc3)n12 | 27 | 42.7 | 25.4 | 34.1 | 31.2 |  |  |  | 
COc1ccc(-c2cnc3scc(C(=O)NNC(C)=O)n23)cc1 | 17.9 | 28.3 | 8.36 | 17 | 11.8 |  |  |  | 
CN(Cc1cnc2nc(N)nc(N)c2n1)c1ccc(C(=O)N[C@@H](CCC(=O)O)C(=O)O)cc1 [METHOTREXATE] | 13.7 | 28.8 | 25.3 | 9.25 | 21.9 |  |  |  | 
CCOC(=O)c1csc2nc(CN3CCN(C)CC3)c(-c3ccc(C)cc3)n12 | 43.9 | 65 | 58.3 | 61 | 53.6 |  |  |  | 
O=C(NCCCc1ccccc1)c1csc(NC(=S)Nc2ccc(Cl)cc2)n1 | 32.2 | 42.4 | 45.1 | 36.6 | 53.1 |  |  |  | 
CCOC(=O)c1csc2nc(CN3CCN(C)CC3)c(-c3ccc(Br)cc3)n12 | 55.4 | 85 | 68.5 | 93.6 | 82.7 |  |  |  | 
Cc1ccc(-c2c(CN3CCCCC3)nc3scc(C(=O)O)n23)cc1 | 7.63 | 16.6 | 8.29 | 13.8 | 10.8 | 146 | > 100 | 180 | 907
CCOC(=O)c1csc2nc(CN3CCN(Cc4ccccc4)CC3)c(-c3ccc(Br)cc3)n12 | 29.5 | 56.4 | 51.4 | 37.2 | 47.3 |  |  |  | 
CCC(=O)NNC(=O)c1csc2ncc(-c3ccc(OC)cc3)n12 | 56.2 | 79.8 | 53.2 | 64.3 | 45.8 |  |  |  | 
O=C(NCCc1ccccc1)c1csc(NC(=S)Nc2ccc(Cl)cc2)n1 | 30.4 | 33.8 | 17.2 | 29.7 | 11.8 |  |  |  | 
CC(=O)NNC(=O)c1csc2ncc(-c3ccc(C)cc3)n12 | 74.2 | 92.7 | 57.3 | 71.8 | 63.6 |  |  |  | 
O=C(NCc1ccccc1)c1csc(NC(=S)Nc2ccc(Cl)cc2)n1 | 76 | 51.3 | 56.5 | 62.1 | 40.3 |  |  |  | 
CCCC(=O)NNC(=O)c1csc2ncc(-c3ccc(C)cc3)n12 | 45.6 | 53.5 | 41.7 | 34.5 | 26.8 |  |  |  | 

Compound | IC50 (HeLa) [µM] | IC50 (PC-3) [µM] | IC50 (MCF7) [µM] | IC50 (HCT-116) [µM] | IC50 (HepG2) [µM] | IC50 [1] [nM] | IC50 (WI-38) [µM] | IC50 [2] [nM] | IC50 (Dihydrofolate reductase) [nM]
CCOC(=O)c1csc2nc(CN3CCOCC3)c(-c3ccc(C)cc3)n12 | 24.8 | 47.1 | 43.6 | 32.6 | 39 |  |  |  | 
CCOC(=O)c1csc2nc(CN3CCOCC3)c(-c3ccc(OC)cc3)n12 | 16.4 | 22.6 | 13.9 | 25.8 | 19.8 |  |  |  | 
NNC(=O)c1csc2nc(CN3CCOCC3)c(-c3ccc(Br)cc3)n12 | 3.65 | 21.9 | 6.18 | 17.9 | 5.81 | 121 | 49.8 | 419 | 3280
CCC(=O)NNC(=O)c1csc2ncc(-c3ccc(C)cc3)n12 | 13 | 18.5 | 5.19 | 9.23 | 7.34 | 244 | 67.2 | 450 | 5670
CCOC(=O)c1csc2nc(CN3CCN(C)CC3)c(-c3ccc(OC)cc3)n12 | 35.1 | 69.4 | 32.8 | 44.6 | 68.4 |  |  |  | 
CCCC(=O)NNC(=O)c1csc2ncc(-c3ccc(Br)cc3)n12 | 31.9 | 58.5 | 27.5 | 50.3 | 33.6 |  |  |  | 
O=C(O)c1csc2nc(CN3CCCCC3)c(-c3ccc(Br)cc3)n12 | 76.6 | > 100 | 87.5 | > 100 | > 100 |  |  |  | 
COc1ccc(-c2c(CN3CCCCC3)nc3scc(C(=O)O)n23)cc1 | 47.4 | 73.1 | 62.9 | 84.6 | 75 |  |  |  | 
CCOC(=O)c1csc2nc(CN3CCOCC3)c(-c3ccc(Br)cc3)n12 | 20.8 | 35.2 | 24.6 | 28.5 | 32.5 |  |  |  | 
COc1ccc(NC(=S)Nc2nc(C(=O)NCCCc3ccccc3)cs2)cc1 | 57.5 | 74.5 | 63.8 | 44.8 | 71.3 |  |  |  | 
CCCC(=O)NNC(=O)c1csc2nc(CN3CCOCC3)c(-c3ccc(C)cc3)n12 | 67.9 | > 100 | 89.3 | 77.5 | 92.4 |  |  |  | 
CCC(=O)NNC(=O)c1csc2nc(CN3CCOCC3)c(-c3ccc(C)cc3)n12 | 48.4 | 79.1 | 58.2 | 64.5 | 69.2 |  |  |  | 
CNC(=O)c1cc(Oc2ccc(NC(=O)Nc3ccc(Cl)c(C(F)(F)F)c3)cc2)ccn1 [SORAFENIB] |  | 11.5 |  |  |  |  |  |  | 
CCCC(=O)NNC(=O)c1csc2ncc(-c3ccc(OC)cc3)n12 | 43.3 | 66.4 | 32.8 | 59.1 | 38 |  |  |  | 
CC(=O)NNC(=O)c1csc2nc(CN3CCOCC3)c(-c3ccc(Br)cc3)n12 | 13.6 | 29.3 | 19.1 | 22 | 14.1 |  |  |  | 
CCOC(=O)c1csc2nc(CN3CCN(Cc4ccccc4)CC3)c(-c3ccc(OC)cc3)n12 | 9.94 | 29.4 | 17.1 | 19.6 | 26.4 |  |  |  | 
CCC(=O)NNC(=O)c1csc2ncc(-c3ccc(Br)cc3)n12 | 23.1 | 43.7 | 15 | 25.3 | 19.2 |  |  |  | 
Cc1ccc(-c2c(CN3CCOCC3)nc3scc(C(=O)NN)n23)cc1 | 6.9 | 11.2 | 8.46 | 13.2 | 9.67 | 357 | 89.6 | 246 | 123
CCCC(=O)NNC(=O)c1csc2nc(CN3CCOCC3)c(-c3ccc(Br)cc3)n12 | 29.2 | 52.9 | 35.9 | 46.8 | 38.4 |  |  |  | 
